According to PMC7073229, “Novel Quinoline Compounds Active in Cancer Cells through Coupled DNA Methyltransferase Inhibition and Degradation” (Cancers, 2020):

What was measured:
Assay in all cases: Kinase inhibitory assay (panel)
Format in all cases: biochemical
Conditions in all cases: read-out: % inhibition at 10 µM
Abl kinase (h) = Abl kinase (h) (Homo sapiens, UniProt P00519)
Procedure: (§1) Experimental procedure of kinase inhibitory assays
(§2) The test compound, reference compound or water (control) were mixed with the enzyme (for the exact amount see table below) in the appropriate buffer. Thereafter, the reaction was initiated by adding the required amount of the appropriate substrate and of ATP, and the mixture is incubated at room temperature (variable reaction time, see table below). For control basal measurements, the enzyme was omitted from the reaction mixture. Following incubation, the reaction was stopped by adding 13 mM
(§3) EDTA. After 5 min, the proper antibody labelled with europium chelate was added. After 60 more min, the fluorescence transfer was measured at λex=337 nm, λem=620 nm and λem=665 nm using a microplate reader (Envision, Perkin Elmer). The enzyme activity was determined by d ividing the signal measured at 665 nm by that measured at 620 nm (ratio). The results are expressed as a percent inhibition of the control enzyme activity. The standard inhibitory reference compound is staurosporine when not differently indicated (see tabl e below), which has been tested in each experiment at several concentrations to obtain an inhibition curve from which its IC 50 value is calculated.
(§4) • Assay volume and format: 10 µL in 384-well plate
(§5) • Compound addition: [100x] solution in solvent then [5x] solution in water • Maximum tolerable DMSO concentration: 1%

Akt1/PKBalpha (h) = Akt1/PKBalpha (h) (Homo sapiens, UniProt P31749)
Procedure: as §1, §2, §3, §4, §5

AurA/Aur2 kinase (h) = AurA/Aur2 kinase (h) (Homo sapiens, UniProt O14965)
Procedure: as §1, §2, §3, §4, §5

CDC2/CDK1 (h) (cycB) = CDC2/CDK1 (h) (cycB) (Homo sapiens, UniProt P06493)
Procedure: as §1, §2, §3, §4, §5

CHK2 (h) = CHK2 (h) (Homo sapiens, UniProt O96017)
Procedure: as §1, §2, §3, §4, §5

CaMK2alpha (h) = CaMK2alpha (h) (Homo sapiens, UniProt Q9UQM7)
Procedure: as §1, §2, §3, §4, §5

EGFR kinase (h) = EGFR kinase (h) (Homo sapiens, UniProt P00533)
Procedure: as §1, §2, §3, §4, §5

ERK2 (h) (P42mapk) = ERK2 (h) (P42mapk) (Homo sapiens, UniProt P28482)
Procedure: as §1, §2, §3, §4, §5

EphA2 kinase (h) = EphA2 kinase (h) (Homo sapiens, UniProt P29317)
Procedure: as §1, §2, §3, §4, §5

EphA3 kinase (h) = EphA3 kinase (h) (Homo sapiens, UniProt P29320)
Procedure: as §1, §2, §3, §4, §5

GSK3beta (h) = GSK3beta (h) (Homo sapiens, UniProt P49841)
Procedure: as §1, §2, §3, §4, §5

JAK3 (h) = JAK3 (h) (Homo sapiens, UniProt P52333)
Procedure: as §1, §2, §3, §4, §5

JNK1 (h) = JNK1 (h) (Homo sapiens, UniProt P45983)
Procedure: as §1, §2, §3, §4, §5

Lck kinase (h) = Lck kinase (h) (Homo sapiens, UniProt P06239)
Procedure: as §1, §2, §3, §4, §5

MNK2 (h) = MNK2 (h) (Homo sapiens, UniProt Q9HBH9)
Procedure: as §1, §2, §3, §4, §5

NEK2 (h) = NEK2 (h) (Homo sapiens, UniProt P51955)
Procedure: as §1, §2, §3, §4, §5

PAK2 (h) = PAK2 (h) (Homo sapiens, UniProt Q13177)
Procedure: as §1, §2, §3, §4, §5

PAK4 (h) = PAK4 (h) (Homo sapiens, UniProt O96013)
Procedure: as §1, §2, §3, §4, §5

PDK1 (h) = PDK1 (h) (Homo sapiens, UniProt O15530)
Procedure: as §1, §2, §3, §4, §5

PKA (h) = PKA (h) (Homo sapiens, UniProt P17612)
Procedure: as §1, §2, §3, §4, §5

Pim2 kinase (h) = Pim2 kinase (h) (Homo sapiens, UniProt Q9P1W9)
Procedure: as §1, §2, §3, §4, §5

ROCK1 (h) = ROCK1 (h) (Homo sapiens, UniProt Q13464)
Procedure: as §1, §2, §3, §4, §5

SGK1 (h) = SGK1 (h) (Homo sapiens, UniProt O00141)
Procedure: as §1, §2, §3, §4, §5

SIK (h) = SIK (h) (Homo sapiens, UniProt P57059)
Procedure: as §1, §2, §3, §4, §5

c-Met kinase (h) = c-Met kinase (h) (Homo sapiens, UniProt P08581)
Procedure: as §1, §2, §3, §4, §5

p38alpha kinase (h) = p38alpha kinase (h) (Homo sapiens, UniProt Q16539)
Procedure: as §1, §2, §3, §4, §5

EphA2 kinase (h), sequence (P29317 24-976): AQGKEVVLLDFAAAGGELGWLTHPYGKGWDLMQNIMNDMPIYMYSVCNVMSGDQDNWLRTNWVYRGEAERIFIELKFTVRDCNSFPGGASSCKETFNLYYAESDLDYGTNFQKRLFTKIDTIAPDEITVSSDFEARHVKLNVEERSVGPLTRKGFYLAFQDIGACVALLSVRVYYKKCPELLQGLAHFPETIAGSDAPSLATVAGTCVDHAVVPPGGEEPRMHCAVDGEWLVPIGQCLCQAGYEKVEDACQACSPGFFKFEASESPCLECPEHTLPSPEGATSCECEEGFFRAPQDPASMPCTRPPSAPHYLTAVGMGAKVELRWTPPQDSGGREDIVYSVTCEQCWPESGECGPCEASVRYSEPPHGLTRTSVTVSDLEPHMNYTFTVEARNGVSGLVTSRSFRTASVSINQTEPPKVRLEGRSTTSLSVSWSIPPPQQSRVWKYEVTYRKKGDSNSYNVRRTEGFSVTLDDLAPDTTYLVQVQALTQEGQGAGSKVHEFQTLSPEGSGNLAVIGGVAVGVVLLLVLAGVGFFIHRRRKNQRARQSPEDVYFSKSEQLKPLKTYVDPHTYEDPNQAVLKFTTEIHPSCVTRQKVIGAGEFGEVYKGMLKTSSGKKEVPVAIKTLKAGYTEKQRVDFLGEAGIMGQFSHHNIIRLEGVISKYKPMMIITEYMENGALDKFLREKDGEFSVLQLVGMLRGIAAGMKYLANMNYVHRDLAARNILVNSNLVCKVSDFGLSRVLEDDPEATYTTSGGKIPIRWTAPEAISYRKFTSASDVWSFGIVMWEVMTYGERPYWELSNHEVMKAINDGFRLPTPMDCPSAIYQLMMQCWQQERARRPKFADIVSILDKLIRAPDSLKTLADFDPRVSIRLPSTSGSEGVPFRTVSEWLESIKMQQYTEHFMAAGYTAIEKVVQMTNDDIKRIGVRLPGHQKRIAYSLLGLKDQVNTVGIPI
ERK2 (h) (P42mapk), sequence (P28482 whole entry): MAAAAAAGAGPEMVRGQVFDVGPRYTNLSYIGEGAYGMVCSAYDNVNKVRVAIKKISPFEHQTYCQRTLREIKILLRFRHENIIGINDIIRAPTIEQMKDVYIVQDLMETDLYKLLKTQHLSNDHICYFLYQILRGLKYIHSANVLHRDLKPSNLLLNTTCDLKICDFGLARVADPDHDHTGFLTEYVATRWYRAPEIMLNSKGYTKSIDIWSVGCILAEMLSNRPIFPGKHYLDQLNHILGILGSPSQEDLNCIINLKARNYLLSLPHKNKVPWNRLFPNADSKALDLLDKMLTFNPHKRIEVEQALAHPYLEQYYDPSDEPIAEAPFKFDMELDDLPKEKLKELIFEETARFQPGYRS
EGFR kinase (h), sequence (P00533 25-1210): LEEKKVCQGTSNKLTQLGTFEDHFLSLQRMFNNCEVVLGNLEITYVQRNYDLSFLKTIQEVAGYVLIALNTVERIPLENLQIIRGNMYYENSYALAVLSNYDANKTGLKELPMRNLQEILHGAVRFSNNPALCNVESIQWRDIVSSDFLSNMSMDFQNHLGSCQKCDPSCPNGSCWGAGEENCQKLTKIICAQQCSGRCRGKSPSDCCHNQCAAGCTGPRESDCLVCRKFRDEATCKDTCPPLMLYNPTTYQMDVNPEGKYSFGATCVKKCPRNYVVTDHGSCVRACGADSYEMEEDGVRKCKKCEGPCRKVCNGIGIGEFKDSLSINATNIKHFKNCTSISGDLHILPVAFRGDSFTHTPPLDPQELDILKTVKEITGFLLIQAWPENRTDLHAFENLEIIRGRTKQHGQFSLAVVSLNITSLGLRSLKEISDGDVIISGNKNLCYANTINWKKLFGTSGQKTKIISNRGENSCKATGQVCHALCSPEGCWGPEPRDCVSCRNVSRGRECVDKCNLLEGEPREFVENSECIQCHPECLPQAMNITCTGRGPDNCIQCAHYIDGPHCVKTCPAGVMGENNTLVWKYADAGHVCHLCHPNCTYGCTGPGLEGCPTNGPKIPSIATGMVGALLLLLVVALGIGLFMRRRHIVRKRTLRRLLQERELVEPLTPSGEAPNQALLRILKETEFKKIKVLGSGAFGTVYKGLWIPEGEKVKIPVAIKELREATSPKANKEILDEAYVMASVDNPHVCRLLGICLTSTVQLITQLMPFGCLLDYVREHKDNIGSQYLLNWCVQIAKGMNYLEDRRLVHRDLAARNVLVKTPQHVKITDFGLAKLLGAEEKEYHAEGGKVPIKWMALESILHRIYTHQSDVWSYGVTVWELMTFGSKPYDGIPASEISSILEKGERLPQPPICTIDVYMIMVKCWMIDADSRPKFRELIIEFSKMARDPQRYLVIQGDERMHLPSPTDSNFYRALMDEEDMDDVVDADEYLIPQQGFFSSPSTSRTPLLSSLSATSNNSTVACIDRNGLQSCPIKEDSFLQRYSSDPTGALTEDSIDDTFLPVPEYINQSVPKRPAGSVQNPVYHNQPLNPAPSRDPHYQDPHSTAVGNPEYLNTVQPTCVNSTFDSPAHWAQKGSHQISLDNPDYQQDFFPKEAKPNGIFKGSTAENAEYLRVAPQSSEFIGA
CDC2/CDK1 (h) (cycB), sequence (P06493 whole entry): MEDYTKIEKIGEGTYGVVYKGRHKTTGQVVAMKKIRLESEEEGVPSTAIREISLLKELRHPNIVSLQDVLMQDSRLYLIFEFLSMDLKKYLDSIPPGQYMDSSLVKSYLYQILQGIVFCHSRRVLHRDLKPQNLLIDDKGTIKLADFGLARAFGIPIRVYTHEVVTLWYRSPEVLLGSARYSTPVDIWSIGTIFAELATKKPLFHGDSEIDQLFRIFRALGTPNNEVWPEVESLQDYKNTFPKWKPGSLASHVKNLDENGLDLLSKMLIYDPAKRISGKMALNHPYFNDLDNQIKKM
CDC2/CDK1 (h) (cycB), sequence (P14635 whole entry partner): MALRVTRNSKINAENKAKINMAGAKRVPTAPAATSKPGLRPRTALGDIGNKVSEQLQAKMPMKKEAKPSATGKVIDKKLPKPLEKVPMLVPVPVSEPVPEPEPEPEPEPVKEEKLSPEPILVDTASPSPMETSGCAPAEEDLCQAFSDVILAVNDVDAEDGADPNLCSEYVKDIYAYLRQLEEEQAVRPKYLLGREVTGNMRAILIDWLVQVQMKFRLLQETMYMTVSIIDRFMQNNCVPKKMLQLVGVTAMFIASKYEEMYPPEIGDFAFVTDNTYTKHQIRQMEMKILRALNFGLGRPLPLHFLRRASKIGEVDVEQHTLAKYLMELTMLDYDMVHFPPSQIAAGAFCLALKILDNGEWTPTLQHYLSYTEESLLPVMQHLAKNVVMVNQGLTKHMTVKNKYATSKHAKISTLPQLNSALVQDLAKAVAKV
p38alpha kinase (h), sequence (Q16539 whole entry): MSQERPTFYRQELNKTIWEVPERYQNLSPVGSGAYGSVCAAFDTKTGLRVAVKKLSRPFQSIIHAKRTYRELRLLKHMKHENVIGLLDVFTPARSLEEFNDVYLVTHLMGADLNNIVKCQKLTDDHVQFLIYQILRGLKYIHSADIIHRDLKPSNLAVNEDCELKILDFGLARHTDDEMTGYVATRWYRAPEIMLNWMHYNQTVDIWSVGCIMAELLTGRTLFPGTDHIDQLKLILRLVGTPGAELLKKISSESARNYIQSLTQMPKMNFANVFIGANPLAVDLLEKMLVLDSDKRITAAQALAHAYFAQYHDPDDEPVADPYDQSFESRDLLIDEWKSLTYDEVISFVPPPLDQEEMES
NEK2 (h), sequence (P51955 whole entry): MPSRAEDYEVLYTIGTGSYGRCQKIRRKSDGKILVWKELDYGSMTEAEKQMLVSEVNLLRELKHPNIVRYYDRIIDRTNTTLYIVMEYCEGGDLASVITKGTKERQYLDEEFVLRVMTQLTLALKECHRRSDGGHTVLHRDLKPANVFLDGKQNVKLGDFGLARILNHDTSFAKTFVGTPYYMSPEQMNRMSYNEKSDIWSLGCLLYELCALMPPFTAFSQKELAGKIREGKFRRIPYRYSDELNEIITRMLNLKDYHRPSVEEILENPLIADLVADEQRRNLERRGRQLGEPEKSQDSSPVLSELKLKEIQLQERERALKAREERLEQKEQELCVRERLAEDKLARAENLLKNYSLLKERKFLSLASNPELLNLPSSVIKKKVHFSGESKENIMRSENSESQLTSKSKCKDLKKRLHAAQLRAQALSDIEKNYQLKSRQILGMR
PAK4 (h), sequence (O96013 whole entry): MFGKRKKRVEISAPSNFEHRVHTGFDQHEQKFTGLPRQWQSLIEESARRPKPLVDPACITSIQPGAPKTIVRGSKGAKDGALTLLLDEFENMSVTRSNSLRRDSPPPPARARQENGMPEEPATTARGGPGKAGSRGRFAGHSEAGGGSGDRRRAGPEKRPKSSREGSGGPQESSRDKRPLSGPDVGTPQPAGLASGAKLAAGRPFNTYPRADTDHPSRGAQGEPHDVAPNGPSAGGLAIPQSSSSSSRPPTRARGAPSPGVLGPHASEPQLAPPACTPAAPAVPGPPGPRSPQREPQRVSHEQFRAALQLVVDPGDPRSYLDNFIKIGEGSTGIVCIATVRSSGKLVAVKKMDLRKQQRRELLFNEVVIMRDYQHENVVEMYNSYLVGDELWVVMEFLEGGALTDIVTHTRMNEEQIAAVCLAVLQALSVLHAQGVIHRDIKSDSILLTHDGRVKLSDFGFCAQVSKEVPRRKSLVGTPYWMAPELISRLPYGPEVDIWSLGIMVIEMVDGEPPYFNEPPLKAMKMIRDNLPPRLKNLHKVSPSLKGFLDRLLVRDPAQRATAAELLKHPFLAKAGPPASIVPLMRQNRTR
Pim2 kinase (h), sequence (Q9P1W9 whole entry): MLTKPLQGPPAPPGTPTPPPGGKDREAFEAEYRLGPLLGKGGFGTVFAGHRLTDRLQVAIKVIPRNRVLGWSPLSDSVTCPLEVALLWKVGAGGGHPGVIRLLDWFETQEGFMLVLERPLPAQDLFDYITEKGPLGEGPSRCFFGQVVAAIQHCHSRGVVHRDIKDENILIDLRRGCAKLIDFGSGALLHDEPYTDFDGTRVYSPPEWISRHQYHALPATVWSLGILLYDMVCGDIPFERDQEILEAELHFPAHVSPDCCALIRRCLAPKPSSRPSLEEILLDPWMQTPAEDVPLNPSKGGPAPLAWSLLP

O=C(Nc1ccc(Nc2ccnc3ccccc23)cc1)c1cccc(Nc2ccnc3ccccc23)c1 [Compound 2a]
inhibition at 10 µM (Abl kinase (h)): 0%
inhibition at 10 µM (Akt1/PKBalpha (h)): -178%
inhibition at 10 µM (AurA/Aur2 kinase (h)): -20%
inhibition at 10 µM (CDC2/CDK1 (h) (cycB)): 16%
inhibition at 10 µM (CHK2 (h)): -195%
inhibition at 10 µM (CaMK2alpha (h)): -99%
inhibition at 10 µM (EGFR kinase (h)): 36%
inhibition at 10 µM (ERK2 (h) (P42mapk)): 9%
inhibition at 10 µM (EphA2 kinase (h)): -184%
inhibition at 10 µM (EphA3 kinase (h)): -57%
inhibition at 10 µM (GSK3beta (h)): -72%
inhibition at 10 µM (JAK3 (h)): -100%
inhibition at 10 µM (JNK1 (h)): -91%
inhibition at 10 µM (Lck kinase (h)): 23%
inhibition at 10 µM (MNK2 (h)): -6%
inhibition at 10 µM (NEK2 (h)): -72%
inhibition at 10 µM (PAK2 (h)): -150%
inhibition at 10 µM (PAK4 (h)): -17%
inhibition at 10 µM (PDK1 (h)): -169%
inhibition at 10 µM (PKA (h)): 26%
inhibition at 10 µM (Pim2 kinase (h)): -51%
inhibition at 10 µM (ROCK1 (h)): -61%
inhibition at 10 µM (SGK1 (h)): 28%
inhibition at 10 µM (SIK (h)): 22%
inhibition at 10 µM (c-Met kinase (h)): -54%
inhibition at 10 µM (p38alpha kinase (h)): -64%
